Test results published in patent US20110190215A1, “THERAPEUTIC USE OF PEPTIDES” (priority 2008, published 2011).
Entries after “also recorded” stand apart in the source; their conditions may differ. Where no end group is shown, it is not given here.

Key:
rho 2 = test: Microarray gene expression in peptide-treated TR146 cells: rho 2; format: cell-based; conditions: TR146 buccal mucosal cells, 2.0 μM peptide, 6 hours, vs mock-treated, Affymetrix Human Genome Focus Array
Description: (§1) TR146 buccal mucosal cells, obtained from Cancer Research U.K., were propagated in Dulbecco's modified Eagle medium (DMEM) high glucose (Gibco). The culture medium supplemented with 3.7 mg/ml NaHCO3, 10% FCS, 50 units/ml penicillin G, and […] streptomycin sulphate. Cells were passaged when 90% confluence was reached. The medium was discarded, and cells were washed twice with sterile DPBS (without calcium and magnesium, Cellgro) and 0.25% trypsin-EDTA solution (Gibco) was added. The flask was placed at 37° C. for 10 minutes and then detached cells were suspended in growth medium and seeded in new flasks (dishes micro-well plates).
(§2) For microarray analysis, cells at 75-80% confluence in T75 flasks were treated with equimolar (2.0 μM) concentrations of peptide of SEQ ID NO 5. Mock-treated cells received same volume of solvent. After 6 hours the cells were washed twice with DPBS, trypsinized, suspended in 5 ml growth media and centrifuged (800 g for 10 minutes). Cells were resuspended in 5 ml DPBS and centrifuged again. […]
(§3) RNA isolation for Microarray Procedure Total RNAs were isolated with an Ambion RNAqueous Kit, and cDNAs were synthesized and purified for Affymetrix GeneChip® Human Genome Focus Array analysis. Raw data were analyzed by the Affymetrix NetAFFX Analysis Center online tools.
(§4) The nature of change of gene expression profile in response to the peptide was determined. […]

[1] = system: gamma-aminobutyric acid A receptor (GABAAR); test: Microarray gene expression in peptide-treated TR146 cells: GABA A receptor; format: cell-based; conditions: TR146 buccal mucosal cells, 2.0 μM peptide, 6 hours, vs mock-treated, Affymetrix Human Genome Focus Array
Description: as §1, §2, §3, §4

[2] = system: beta 2 gamma-aminobutyric acid receptor, theta; test: Microarray gene expression in peptide-treated TR146 cells: beta 2 GABA receptor, theta; format: cell-based; conditions: TR146 buccal mucosal cells, 2.0 μM peptide, 6 hours, vs mock-treated, Affymetrix Human Genome Focus Array
Description: as §1, §2, §3, §4

[3] = system: glutamate decarboxylase 2 (pancreatic islets, lung and brain, 65 kDa); test: Microarray gene expression in peptide-treated TR146 cells: glutamate decarboxylase 2 (65 kDa); format: cell-based; conditions: TR146 buccal mucosal cells, 2.0 μM peptide, 6 hours, vs mock-treated, Affymetrix Human Genome Focus Array
Description: as §1, §2, §3, §4

leptin = test: Proteomic microarray (antibody membrane, chemiluminescence): leptin protein expression in TR146 cells; format: cell-based; conditions: TR146 buccal mucosal cells, 2.0 μM peptide, 24 hours, vs mock-treated
Description: as §1
For proteomic microarray analysis, cells at 75-80% confluence in T75 flasks were treated with equimolar (2.0 μM) concentrations of a peptide consisting of the sequence FVAPFPEVFGKEKV (SEQ ID NO 2), […] (SEQ ID NO 3), GPVRGPFPI (SEQ ID NO 4), EPVLGPVRGPFPI (SEQ ID NO 5), VPYPQRDMPIQ (SEQ ID NO 6), […] (SEQ ID NO 7), EPVLGPVR (SEQ ID NO 8) and […] (SEQ ID NO 1). Mock-treated cells received same volume of solvent. After 24 hours the cells were washed twice with DPBS, trypsinized, suspended in 5 ml growth media and centrifuged (800 g for 10 minutes). Cells were resuspended in 5 ml DPBS and centrifuged again.
Antibodies specific to leptin were immobilised on the surface of a membrane. Sample extracts of cell samples each treated with peptides of amino acid sequences SEQ ID NO 1, 2, 3, 4, 5, 6, 7 and 8 were incubated with the membranes. Biotinylated antibodies, specific to leptin-antibody complexes, were then incubated with the membranes. Bound leptin was quantified by measuring chemiluminescence.

Bleomycin hydrolase = test: Microarray gene expression in peptide-treated TR146 cells: bleomycin hydrolase; format: cell-based; conditions: TR146 buccal mucosal cells, 2.0 μM peptide, 6 hours, vs mock-treated, Affymetrix Human Genome Focus Array
Description: as §1
(§5) For microarray analysis, cells at 75-80% confluence in T75 flasks were treated with equimolar (2.0 μM) concentrations of a peptide consisting of the sequence […] (SEQ ID NO 1). […]
(§6) Total RNAs were isolated with an Ambion RNAqueous Kit, and cDNAs were synthesized and purified for Affymetrix GeneChip® Human Genome Focus Array analysis. Raw data were analyzed by the Affymetrix NetAFFX Analysis Center online tools.
(§7) The nature of change of gene expression profile in response to the peptide consisting of the sequence […] (SEQ ID NO 1) was determined. […]
(§8) The nature of change of gene expression profile in response to each of the peptides consisting of the sequence RMPLPPRGCPAAAPWS (SEQ ID NO 10) or […] (SEQ ID NO 1) was determined. […]

[4] = system: glutamate receptor, ionotropic, N-methyl D-aspartate 2A; test: Microarray gene expression in peptide-treated TR146 cells: NMDA 2A glutamate receptor; format: cell-based; conditions: TR146 buccal mucosal cells, 2.0 μM peptide, 6 hours, vs mock-treated, Affymetrix Human Genome Focus Array
Description: as §1, §5, §6, §7, §8

[5] = system: glutamate receptor, metabotropic 7; test: Microarray gene expression in peptide-treated TR146 cells: metabotropic glutamate receptor 7; format: cell-based; conditions: TR146 buccal mucosal cells, 2.0 μM peptide, 6 hours, vs mock-treated, Affymetrix Human Genome Focus Array
Description: as §1, §5, §6, §7, §8

[6] = system: glutamate receptor, metabotropic 8; test: Microarray gene expression in peptide-treated TR146 cells: metabotropic glutamate receptor 8; format: cell-based; conditions: TR146 buccal mucosal cells, 2.0 μM peptide, 6 hours, vs mock-treated, Affymetrix Human Genome Focus Array
Description: as §1, §5, §6, §7, §8

[7] = system: brain glutamate decarboxylase 2; test: Microarray gene expression in peptide-treated TR146 cells: brain glutamate decarboxylase 2; format: cell-based; conditions: TR146 buccal mucosal cells, 2.0 μM peptide, 6 hours, vs mock-treated, Affymetrix Human Genome Focus Array
Description: as §1, §5, §6, §7, §8

[8] = system: Apolipoprotein E (APOE) and receptors; test: Microarray gene expression in peptide-treated TR146 cells: APOE and receptors; format: cell-based; conditions: TR146 buccal mucosal cells, 2.0 μM peptide, 6 hours, vs mock-treated, Affymetrix Human Genome Focus Array
Description: as §1, §5, §6, §7, §8

[9] = system: TR146 buccal mucosal cells; test: Microarray gene expression profile of peptide-treated TR146 cells (number of genes altered); format: cell-based, human; conditions: 2.0 μM peptide, 6 hours
Description: as §1
For microarray analysis, cells at 75-80% confluence in T75 flasks were treated with equimolar (2.0 μM) concentrations of a peptide consisting of the sequence […] (SEQ ID NO 1). Mock-treated cells received same volume of solvent. After 6 hours the cells were washed twice with DPBS, trypsinized, suspended in 5 ml growth media and centrifuged (800 g for 10 minutes). Cells were resuspended in 5 ml DPBS and centrifuged again. Cell pellets were used for RNA isolation.
as §6
The nature of change of gene expression profile in response to the peptide consisting of the sequence […] (SEQ ID NO 1) was determined. Four result files were generated: 1. Molecular networks; 2. Biological functions and diseases; 3. Metabolic-, signalling-, and other molecular pathways; 4. Network node molecule lists. Fischer's exact test was used to calculate a p-value determining the probability that each biological function and/or disease assigned to that data set is due to chance alone.

[10] = Body weight of mice on high-fat diet (HFD) co-administered peptides; format: in vivo; conditions: for body weight gain compared to control fed with HFD alone: peptide co-administered with HFD for 10 months; for body weight: peptide co-administered with high-fat diet (HFD) for 10 months, HFD control 54.7 g, regular diet 29.8 g
Resistin = test: Microarray gene expression in peptide-treated TR146 cells: resistin; format: cell-based; conditions: TR146 buccal mucosal cells, 2.0 μM peptide, 6 hours, vs mock-treated, Affymetrix Human Genome Focus Array
Description: as §1
(§9) For microarray analysis, cells at 75-80% confluence in T75 flasks were treated with equimolar (2.0 μM) concentrations of peptides. Mock-treated cells received same volume of solvent. After 6 hours the cells were washed twice with DPBS, trypsinized, suspended in 5 ml growth media and centrifuged (800 g for 10 minutes). Cells were resuspended in 5 ml DPBS and centrifuged again. Cell pellets were used for RNA isolation.
as §6, §4

[11] = system: Renin (angiotensinogenase); test: Microarray gene expression in peptide-treated TR146 cells: renin; format: cell-based; conditions: TR146 buccal mucosal cells, 2.0 μM peptide, 6 hours, vs mock-treated, Affymetrix Human Genome Focus Array
Description: as §1, §9, §6, §4

[12] = system: Amyloid Beta (A4) Precursor Protein (APP); test: Microarray gene expression in peptide-treated TR146 cells: APP; format: cell-based; conditions: TR146 buccal mucosal cells, 2.0 μM peptide, 6 hours, vs mock-treated, Affymetrix Human Genome Focus Array
Description: as §1
(§10) For microarray analysis, cells at 75-80% confluence in T75 flasks were treated with equimolar (2.0 μM) concentrations of a peptide consisting of the sequence RMPLPPRGCPAAAPWS (SEQ ID NO 10) or […] (SEQ ID NO 1). Mock-treated cells received same volume of solvent. […]
as §6, §8

Stathmin-1 = test: Microarray gene expression in peptide-treated TR146 cells: Stathmin-1; format: cell-based; conditions: TR146 buccal mucosal cells, 2.0 μM peptide, 6 hours, vs mock-treated, Affymetrix Human Genome Focus Array
Description: as §1, §10, §6, §8

[13] = system: protein-tyrosine phosphatase, receptor-type, F; test: Microarray gene expression in peptide-treated TR146 cells: protein-tyrosine phosphatase, receptor-type, F; format: cell-based; conditions: TR146 buccal mucosal cells, 2.0 μM peptide, 6 hours, vs mock-treated, Affymetrix Human Genome Focus Array
Description: as §1, §10, §6, §8

Q: What does the source list for “EPVLGPVRGPFPI (listed as Ovis sp.) [SEQ ID NO 5, peptide homologous with positions 195 to 207 of casein beta]”?
A: gene expression of rho 2 (rho 2): downregulated; gene expression of gamma-aminobutyric acid A receptor (GABAAR) [1]: downregulated; gene expression of beta 2 gamma-aminobutyric acid receptor, theta [2]: downregulated; gene expression of glutamate decarboxylase 2 (pancreatic islets, lung and brain, 65 kDa) [3]: downregulated; protein expression of leptin (leptin): upregulated

Q: Which results are given for RPKHPIKHQGLPQEVLNENLLRF [SEQ ID NO 1]?
A: gene expression of bleomycin hydrolase (Bleomycin hydrolase): Upregulation; also recorded: upregulated; gene expression of glutamate receptor, ionotropic, N-methyl D-aspartate 2A [4]: Downregulation; also recorded: down-regulated; gene expression of glutamate receptor, metabotropic 7 [5]: Downregulation; also recorded: down-regulated; gene expression of glutamate receptor, metabotropic 8 [6]: Downregulation; also recorded: down-regulated; gene expression of brain glutamate decarboxylase 2 [7]: Downregulation; also recorded: down-regulated; gene expression of Apolipoprotein E (APOE) and receptors [8]: Downregulation; also recorded: down-regulated; number of genes down-regulated [9]: 296 genes; number of genes up-regulated [9]: 101 genes; number of genes with altered expression ([9]; total altered): ~400 genes; protein expression of leptin (leptin): upregulated

Q: Which results are given for “RGPFPIIV (listed as Ovis sp.) [SEQ ID NO 9, peptide said to be homologous with positions 202-209 of casein alpha S-1]”?
A: body weight gain compared to control fed with HFD alone [10]: lower; body weight [10]: 51.1 g

Q: Which results are given for “FVAPFPEVFGKEKV (listed as Ovis sp.) [SEQ ID NO 2, peptide homologous with positions 39 to 52 of casein alpha S-1]”?
A: gene expression of resistin (Resistin): down-regulated; gene expression of renin (angiotensinogenase) [11]: down-regulated; protein expression of leptin (leptin): upregulated; body weight gain compared to control fed with HFD alone [10]: lower; body weight [10]: 52.1 g

Q: For “EPVLGPVR (listed as Ovis sp.) [SEQ ID NO 8, peptide homologous with positions 195-202 of casein beta]”, which “protein expression of leptin” value (leptin) is on record?
A: upregulated

Q: Which “gene expression of Amyloid Beta (A4) Precursor Protein (APP)” value [12] does the source give for “RMPLPPRGCPAAAPWS (listed as Ovis sp.) [SEQ ID NO 10]” here?
A: downregulated

Q: And the “gene expression of Stathmin-1” value (Stathmin-1)?
A: upregulated

Q: What about the “gene expression of protein-tyrosine phosphatase, receptor-type, F” value [13] of the same sequence?
A: downregulated

Q: And the “body weight gain compared to control fed with HFD alone” value [10]?
A: lower

Q: And the body weight [10]?
A: 50.1 g

Q: With “SLSQSKVLPVPQKAVPYPQRDMPIQ (listed as Ovis sp.) [SEQ ID NO 7, peptide homologous with positions 164-188 of casein beta]” as the sequence, how does the “protein expression of leptin” value (leptin) read?
A: upregulated

Q: Which “protein expression of leptin” value (leptin) does the source give for “SDIPNPIGSENSEKTTMPLW (listed as Ovis sp.) [SEQ ID NO 3, peptide homologous with positions 195-214 of casein alpha S-1]” here?
A: upregulated

Q: For “GPVRGPFPI (listed as Ovis sp.) [SEQ ID NO 4, peptide homologous with positions 199-207 of casein beta]”, which “protein expression of leptin” value (leptin) is on record?
A: upregulated

Q: With “VPYPQRDMPIQ (listed as Ovis sp.) [SEQ ID NO 6, peptide homologous with positions 178-188 of casein beta]” as the sequence, how does the “protein expression of leptin” value (leptin) read?
A: upregulated
